Holding throughout (assay type): biochemical
For assay [1], the target named is CDK4/Cyclin-D1 kinase complex (Homo sapiens, UniProt P11802). The assay is described as follows: CDK4 ELISA based assay, Rb Ser780 phosphorylation. An excerpt:
The compounds that inhibit the CDK4 kinase activity would inhibit the signal output of the assay.
For orientation: An ELISA detects its analyte on a solid surface through an enzyme-linked reagent.

In assay [2] the target is CDK2/Cyclin-A kinase complex (Homo sapiens, UniProt P24941). In words: CDK2 IMAP fluorescence polarization assay. In outline: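 Fluorescence polarization (IMAP) using purified active CDK2/Cyclin-A complex with a TAMRA-tagged Histone H1-derived peptide substrate; phosphorylated peptide bound by a metal-containing reagent raises polarization. Inhibition read as reduced fluorescence polarization signal.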

For assay [3], the target named is CDK4 (Homo sapiens, UniProt P11802). The assay is described as follows: CDK4 HTRF assay. The following applies: Table E; read-out: CDK4 HTRF/IC50 [umol l − 1]. On the technique in general: In TR-FRET formats the signal depends on donor and acceptor labels being close together.
Where [4] appears, read: Table E, read-out: CDK4 ELISA assay IC50 [umol l−].
The mark [5] stands for this setting: Table E, read-out: CDK2cyA IMAP/IC50 [umol l − 1].

Like-named read-outs stand apart in the source and are kept apart here.

Sequence of CDK4 (P11802 whole entry): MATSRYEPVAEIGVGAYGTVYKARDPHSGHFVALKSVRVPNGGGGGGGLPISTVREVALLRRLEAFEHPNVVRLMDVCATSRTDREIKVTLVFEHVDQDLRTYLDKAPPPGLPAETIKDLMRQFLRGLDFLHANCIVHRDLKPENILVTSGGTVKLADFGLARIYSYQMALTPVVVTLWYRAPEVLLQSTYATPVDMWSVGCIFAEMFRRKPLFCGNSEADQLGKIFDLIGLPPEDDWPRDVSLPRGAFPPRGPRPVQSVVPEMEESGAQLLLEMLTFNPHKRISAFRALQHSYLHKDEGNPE
Sequence of CDK4 (P24385 whole entry partner): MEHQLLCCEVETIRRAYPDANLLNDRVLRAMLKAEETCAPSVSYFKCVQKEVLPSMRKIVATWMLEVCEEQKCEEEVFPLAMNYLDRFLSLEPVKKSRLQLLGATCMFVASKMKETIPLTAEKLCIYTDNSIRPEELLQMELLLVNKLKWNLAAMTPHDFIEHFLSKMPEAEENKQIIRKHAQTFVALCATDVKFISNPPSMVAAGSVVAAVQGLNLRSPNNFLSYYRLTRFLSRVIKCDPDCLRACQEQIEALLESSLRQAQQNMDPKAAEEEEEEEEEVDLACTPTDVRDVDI
Sequence of CDK4/Cyclin-D1 kinase complex (P11802 whole entry): as the sequence (P11802 whole entry) above
Sequence of CDK4/Cyclin-D1 kinase complex (P24385 whole entry partner): as the sequence (P24385 whole entry partner) above

With `CC(=O)N1CCN(c2ccc(Nc3ncc4ccn(C5CCCCCC5)c4n3)cc2)CC1` [Example 225], the IC50 in assay [1] (setting [4]) is < 1 µM; in assay [2] (setting [5]), < 10 µM; in assay [3] it was < 1 µM.

On to `CCC(CC)n1c(COC)cc2cnc(Nc3ccc(N4CCN(C(=O)OC(C)(C)C)CC4)cc3)nc21` [Example 381], for which the IC50 in assay [1] (setting [4]) and in assay [3] was > 10 µM in each case.

For the molecule `Cc1cn(C2CCCCC2)c2nc(Nc3ccc4[nH]ncc4c3)ncc12` [Example 280], the IC50 in assay [1] (setting [4]) was < 10 µM; in assay [2] (setting [5]), > 10 µM; in assay [3], > 10 µM.

With `CC(=O)c1c(C)n(C2CCCC2)c2nc(Nc3ccc(N4CCNCC4)cc3)ncc12` [Example 333, 1-[7-Cyclopentyl-6-methyl-2-(4-piperazin-1-yl-phenylamino)-7H-pyrrolo[2,3-d]pyrimidin-5-yl]-ethanone], the IC50 in assay [1] (setting [4]) was < 10 µM; in assay [2] (setting [5]) it was 10 µM; in assay [3], 10 µM.

For the molecule `CC(=O)c1cn(C2CCCC2)c2nc(Nc3ccc(N4CCNCC4)cc3)ncc12` [Example 326, 1-[7-cyclopentyl-2-(4-piperazin-1-yl-phenylamino)-7H-pyrrolo[2,3-d]pyrimidin-5-yl]-ethanone], the IC50 in assay [1] (setting [4]) was > 10 µM; in assay [3], 10 µM.

Consider `CCC(C(=O)O)n1ccc2cnc(Nc3ccc(N4CCN(C(C)=O)CC4)cc3)nc21` (stereo not drawn) [Example 220], for which the IC50 in assay [1] (setting [4]) and in assay [3] was > 10 µM throughout.

In the case of `CCC(CC)n1c(C(=O)O)cc2cnc(Nc3ccc(N4CCNCC4)cc3)nc21` [Example 375, 7-(1-Ethyl-propyl)-2-(4-piperazin-1-yl-phenylamino)-7H-pyrrolo[2,3-d]pyrimidine-6-carboxylic acid], the IC50 in assay [1] (setting [4]), in assay [2] (setting [5]) and in assay [3] was < 1 µM each time.

With `CCC(CC)n1c(C=NOC)cc2cnc(Nc3ccc(N4CCN(C(C)=O)CC4)cc3)nc21` [Example 364], the IC50 was > 10 µM in assay [1] (setting [4]), < 10 µM in assay [2] (setting [5]) and < 1 µM in assay [3].

For the molecule `CCC(CC)n1c(C(=O)O)cc2cnc(Nc3ccc(N4CCN(C(C)=O)CC4)cc3)nc21` [Example 374, 2-[4-(4-Acetyl-piperazin-1-yl)-phenylamino]-7-(1-ethyl-propyl)-7H-pyrrolo[2,3-d]pyrimidine-6-carboxylic acid], the IC50 in assay [1] (setting [4]), in assay [2] (setting [5]) and in assay [3] was < 1 µM throughout.

For the molecule `CCC(CC)n1c(CO)cc2cnc(Nc3ccc(N4CCN(C(C)=O)CC4)cc3)nc21` [Example 362, 1-(4-{4-[7-(1-Ethyl-propyl)-6-hydroxymethyl-7H-pyrrolo[2,3-d]pyrimidin-2-ylamino]-phenyl}-piperazin-1-yl)-ethanone], the IC50 was > 10 µM in assay [1] (setting [4]) and < 1 µM in assay [2] (setting [5]).

In the case of `CCC(CC)n1c(COC)cc2cnc(Nc3ccc(N4CCN(C(C)=O)CC4)cc3)nc21` [Example 379], the IC50 in assay [1] (setting [4]) and in assay [2] (setting [5]) was > 10 µM each time.

Take `CC(=O)c1c(C)c2cnc(Nc3ccc(N4CCNCC4)cn3)nc2n1C1CCCC1` [Example 387]: the IC50 was < 1 µM in assay [1] (setting [4]), 10 µM in assay [2] (setting [5]) and < 1 µM in assay [3].

Regarding `CCC(CC)n1ccc2cnc(Nc3ccc(C(=O)N4CCOCC4)cc3)nc21` [Example 212], the values for the IC50 in assay [1] (setting [4]) and in assay [2] (setting [5]) were < 10 µM and < 1 µM, respectively.

Regarding `CN1CCN(c2ccc(Nc3ncc4ccn(C5CCCC5)c4n3)nc2)CC1` [Example 255], the IC50 in assay [1] (setting [4]) and in assay [2] (setting [5]) was > 10 µM in each case.

On to `CC(C)(C)OC(=O)N1CCN(c2ccc(Nc3ncc4ccn(C5CCCC5)c4n3)cc2)CC1` [Example 427], for which the IC50 in assay [1] (setting [4]) and in assay [3] was > 10 µM each time.

Consider `CCCC(C(=O)OCC)n1ccc2cnc(Nc3ccc(N4CCN(C(C)=O)CC4)cc3)nc21` (stereo not drawn) [Example 224], for which the IC50 in assay [1] (setting [4]) and in assay [3] was > 10 µM each time.

In the case of `CCC(CC)n1c(C)cc2cnc(Nc3ccc(C(=O)NC4CCCC4)cc3)nc21` [Example 331], the IC50 in assay [1] (setting [4]) was > 10 µM; in assay [2] (setting [5]) it was < 1 µM.

Take `CC(=O)N1CCN(c2ccc(Nc3ncc4c(C)cn(C5CC5)c4n3)cc2)CC1` [Example 275]: the IC50 in assay [1] (setting [4]) is 8 µM; in assay [2] (setting [5]) it was > 10 µM; in assay [3] it was > 10 µM.

`CCC(CC)N1C(=O)C(C)(C)c2cnc(Nc3ccc(N4CCNCC4)cn3)nc21`: the IC50 in assay [1] (Table C, read-out: CDK4 IC50) was < 10 µM; in assay [2] (Table C, read-out: CDK2 IC50), > 10 µM.

As to `Cc1cc2cnc(Nc3ccc(N4CCNCC4)cc3)nc2n1C1CCCC1` [Example 430], the IC50 in assay [1] (setting [4]), in assay [2] (setting [5]) and in assay [3] was < 1 µM each time.

For `CCC(CC)n1cc(C)c2cnc(Nc3ccc(N4CCN(C)CC4)cc3)nc21` [Example 264], the IC50 in assay [1] (setting [4]) and in assay [2] (setting [5]) was > 10 µM each time.

On to `CCC(CC)n1ccc2cnc(Nc3ccc(C4CCN(C(C)=O)CC4)cc3)nc21` [Example 214], for which the IC50 in assay [1] (setting [4]) is < 10 µM; in assay [2] (setting [5]), > 10 µM.

On to `c1cc2cn[nH]c2cc1Nc1ncc2ccn(C3CCCC3)c2n1` [Example 257], for which the IC50 in assay [1] (setting [4]) and in assay [2] (setting [5]) was < 10 µM in each case.

With `CCC(CC)n1ccc2cnc(Nc3ccc(C4CCCN(C(C)=O)C4)cc3)nc21` (stereo not drawn) [Example 216], the IC50 in assay [1] (setting [4]) and in assay [2] (setting [5]) was < 10 µM throughout.

Regarding `CC(=O)c1c(C)c2cnc(Nc3ccc(N4CCNCC4)cc3)nc2n1C1CCCC1` [Example 383], the IC50 in assay [1] (setting [4]), in assay [2] (setting [5]) and in assay [3] was < 1 µM in each case.

`CCC(CC)n1c(C=O)cc2cnc(Nc3ccc(N4CCN(C(C)=O)CC4)cc3)nc21` [Example 361, 2-[4-(4-Acetyl-piperazin-1-yl)-phenylamino]-7-(1-ethyl-propyl)-7H-pyrrolo[2,3-d]pyrimidine-6-carbaldehyde]: the IC50 in assay [1] (setting [4]), in assay [2] (setting [5]) and in assay [3] was < 1 µM in each case.

For the molecule `CCC(CC)n1ccc2cnc(Nc3cccc(OCCn4ccnc4)c3)nc21` [Example 213], the IC50 is < 10 µM in assay [1] (setting [4]) and < 1 µM in assay [2] (setting [5]).

As to `CCC(CC)n1c(C)cc2cnc(Nc3ccc(N4CCN(C(C)=O)CC4)cc3)nc21` [Example 330], the values for the IC50 in assay [1] (setting [4]) and in assay [2] (setting [5]) were > 10 µM and < 1 µM, respectively.

For the molecule `CCC(CC)n1c(COC)cc2cnc(Nc3ccc(N4CCNCC4)cc3)nc21` [Example 382], the IC50 in assay [1] (setting [4]) was > 10 µM; in assay [2] (setting [5]), < 10 µM; in assay [3], < 1 µM.

With `CCC(CC)n1ccc2cnc(Nc3ccc(C4CCCNC4)cc3)nc21` (stereo not drawn) [Example 211], the IC50 in assay [1] (setting [4]) and in assay [2] (setting [5]) was < 10 µM in each case.

(Values after patent US20120207763A1, “PYRROLOPYRIMIDINE COMPOUNDS AND THEIR USES” (ASTEX THERAPEUTICS LIMITED, priority 2006, published 2012).)
